Assay results taken from US10709758B2 (priority 2015, dated 2020).

Target: TcdB1 (Clostridioides difficile, UniProt P18177)
Sequence (P18177 2-2366 limits assumed): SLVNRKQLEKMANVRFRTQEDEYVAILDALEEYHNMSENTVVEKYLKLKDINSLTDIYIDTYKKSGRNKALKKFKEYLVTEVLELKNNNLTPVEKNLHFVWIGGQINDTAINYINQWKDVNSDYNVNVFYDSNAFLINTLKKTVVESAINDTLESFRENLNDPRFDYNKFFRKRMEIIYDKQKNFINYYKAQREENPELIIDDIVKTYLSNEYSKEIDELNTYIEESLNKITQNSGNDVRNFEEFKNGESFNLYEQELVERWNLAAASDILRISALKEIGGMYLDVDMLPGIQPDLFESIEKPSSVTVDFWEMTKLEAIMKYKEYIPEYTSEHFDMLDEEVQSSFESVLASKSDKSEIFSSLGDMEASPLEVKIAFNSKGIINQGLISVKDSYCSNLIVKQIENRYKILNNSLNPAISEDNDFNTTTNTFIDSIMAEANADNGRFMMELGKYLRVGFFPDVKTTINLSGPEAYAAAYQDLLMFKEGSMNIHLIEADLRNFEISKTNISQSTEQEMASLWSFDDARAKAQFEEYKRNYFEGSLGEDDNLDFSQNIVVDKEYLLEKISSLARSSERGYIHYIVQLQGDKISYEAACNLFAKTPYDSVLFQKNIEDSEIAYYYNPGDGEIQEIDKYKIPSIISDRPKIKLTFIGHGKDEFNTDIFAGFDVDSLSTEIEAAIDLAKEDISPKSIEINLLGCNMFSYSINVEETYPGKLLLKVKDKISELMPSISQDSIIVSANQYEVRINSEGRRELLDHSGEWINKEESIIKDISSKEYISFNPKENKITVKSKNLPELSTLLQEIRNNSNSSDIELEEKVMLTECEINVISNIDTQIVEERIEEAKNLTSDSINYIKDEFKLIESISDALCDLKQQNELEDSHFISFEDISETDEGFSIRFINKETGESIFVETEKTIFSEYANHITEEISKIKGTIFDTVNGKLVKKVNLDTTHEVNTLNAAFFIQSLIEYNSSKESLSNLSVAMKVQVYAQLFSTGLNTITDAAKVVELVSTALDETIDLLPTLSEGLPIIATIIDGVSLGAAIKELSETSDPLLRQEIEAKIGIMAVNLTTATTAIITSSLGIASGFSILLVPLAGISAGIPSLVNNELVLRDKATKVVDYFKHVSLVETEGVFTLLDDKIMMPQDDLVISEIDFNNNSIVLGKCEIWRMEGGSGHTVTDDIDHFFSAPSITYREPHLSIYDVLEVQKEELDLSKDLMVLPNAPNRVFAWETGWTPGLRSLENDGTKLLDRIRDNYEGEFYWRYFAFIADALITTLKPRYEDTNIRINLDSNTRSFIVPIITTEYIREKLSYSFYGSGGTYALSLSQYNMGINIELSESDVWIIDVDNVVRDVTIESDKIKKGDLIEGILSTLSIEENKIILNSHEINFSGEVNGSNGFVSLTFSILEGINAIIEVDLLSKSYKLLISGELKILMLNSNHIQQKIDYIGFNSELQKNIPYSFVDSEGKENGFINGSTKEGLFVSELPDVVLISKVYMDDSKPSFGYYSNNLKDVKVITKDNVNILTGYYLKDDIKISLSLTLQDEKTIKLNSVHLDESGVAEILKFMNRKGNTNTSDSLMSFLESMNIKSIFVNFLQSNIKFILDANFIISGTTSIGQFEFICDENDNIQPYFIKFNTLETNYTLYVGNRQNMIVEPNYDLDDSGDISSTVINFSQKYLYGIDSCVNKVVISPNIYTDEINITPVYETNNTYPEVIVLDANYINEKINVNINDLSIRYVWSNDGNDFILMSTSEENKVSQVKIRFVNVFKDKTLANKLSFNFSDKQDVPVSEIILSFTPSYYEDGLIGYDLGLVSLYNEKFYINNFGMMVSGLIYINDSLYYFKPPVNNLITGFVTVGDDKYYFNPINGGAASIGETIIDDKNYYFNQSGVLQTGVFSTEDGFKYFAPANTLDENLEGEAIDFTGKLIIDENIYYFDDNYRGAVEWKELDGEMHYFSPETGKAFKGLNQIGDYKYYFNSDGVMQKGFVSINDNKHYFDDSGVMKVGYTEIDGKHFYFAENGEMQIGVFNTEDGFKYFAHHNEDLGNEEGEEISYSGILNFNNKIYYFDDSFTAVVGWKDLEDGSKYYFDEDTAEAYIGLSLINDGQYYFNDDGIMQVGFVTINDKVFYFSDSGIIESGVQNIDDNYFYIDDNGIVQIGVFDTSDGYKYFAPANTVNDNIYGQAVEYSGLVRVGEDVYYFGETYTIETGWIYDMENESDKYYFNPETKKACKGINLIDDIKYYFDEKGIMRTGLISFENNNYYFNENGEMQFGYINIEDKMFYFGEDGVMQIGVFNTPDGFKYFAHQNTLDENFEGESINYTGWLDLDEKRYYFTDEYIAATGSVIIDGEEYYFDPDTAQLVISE

In the case of `CC[C@H](C)[C@H](NC(=O)[C@H](CCCCN)NC(=O)[C@H](CC(=O)O)NC(=O)[C@H](CO)NC(=O)[C@@H](NC(=O)[C@@H](NC(=O)[C@H](CC(N)=O)NC(=O)CNC(=O)[C@H](CCCCN)NC(=O)[C@H](Cc1ccccc1)NC(=O)[C@@H](NC(=O)[C@@H](N)CC(N)=O)C(C)C)[C@@H](C)O)[C@@H](C)CC)C(=O)N[C@@H](CO)C(=O)N[C@@H](Cc1ccccc1)C(=O)N[C@@H](CC(N)=O)C(=O)N[C@@H](Cc1ccccc1)C(=O)N[C@@H](CO)C(=O)N[C@@H](CC(=O)O)C(=O)N[C@@H](CCCCN)C(=O)O` [PepB2], the “increase of the 50% toxic concentration (TC50) of TcdB1” value is reported as 500 fold and the “protection from cytotoxicity of TcdB1 over a range of toxin concentrations” value is reported as “protects CHO-K1 cells”.
